Experimental findings from patent US12391698B2, “Substituted piperidines and piperazines and methods for the treatment of CNS disorders” (SUVEN LIFE SCIENCES LIMITED, priority 2022, dated 2025) are described below.

Counter-ions that a name gives are not always drawn. Like-named read-outs stand apart in the source and are kept apart here.

The target of data set [1] is T1, cloned human 5-HT2A receptor (Homo sapiens, UniProt P28223).
T1 construct: expressed in transfected cells; host or cells: CHO-K1
The experiment in a line: Determination of Ki at 5-HT2A receptor (radioligand binding, [3H]-Ketanserine). The conditions noted are these: CHO-K1 recombinant cells; [3H]-Ketanserine 1.25 nM; read-out: Ki h5-HT2A. The procedure: (§1) Compounds were tested according to the following procedure.
• Receptor source: Recombinant mammalian cells (CHO-K1) • Radioligand: [^3H]-Ketanserine (41.9 Ci/mmol) • Final ligand concentration: 1.25 nM • Non-specific determinant: 0.1 mM 1-Napthyl piperazine (1-NP) • Reference compound: 1-Napthyl piperazine (1-NP) • Positive control: 1-Napthyl piperazine (1-NP) Incubation Conditions:
Reactions were carried out in buffer with pH 7.4 containing 50 mM Tris-HCl, 4 mM CaCl2), 0.1% Ascorbic acid for 1 h at r.t. The reaction was terminated by rapid vacuum filtration onto the glass fiber filters. Radioactivity trapped onto the filters was determined and compared to the control values in order to ascertain any interactions of the test compound(s) with cloned human 5-HT2A receptor binding site.

The target in data set [2] is T2, hD2S (cloned human dopamine D2S receptor) (Homo sapiens, UniProt P14416).
T2 construct: expressed in transfected cells; host or cells: CHO-K1
The experiment in a line: Determination of Ki at D2S receptor (radioligand binding, [3H]-Raclopride). The conditions noted are these: CHO-K1 recombinant cells; [3H]-Raclopride 4 nM; read-out: Ki hD2S. The procedure:
as §1
• Receptor source: Recombinant mammalian cells (CHO-K1) • Radioligand: [^3H]-Raclopride (80.8 Ci/mmol) • Final ligand concentration: 4 nM • Non-specific determinant: 0.1 mM Haloperidol • Reference compound: Haloperidol • Positive control: Haloperidol Incubation Conditions:
Reactions were carried out in buffer with pH 7.4 containing 50 mM Tris-HCl, 120 mM NaCl, 5 mM KCl, 5 mM MgCl2, 1 mM EDTA for 2 h at r.t. The reaction was terminated by rapid vacuum filtration onto the glass fiber filters. Radioactivity trapped onto the filters was determined and compared to the control values in order to ascertain any interactions of the test compound(s) with cloned human dopamine […] receptor binding site.

The target of data set [3] is T3, cloned human 5-HT1A receptor (Homo sapiens, UniProt P08908).
T3 construct: expressed in transfected cells; host or cells: HEK293-EBNA
T3 sequence (P08908 1-422): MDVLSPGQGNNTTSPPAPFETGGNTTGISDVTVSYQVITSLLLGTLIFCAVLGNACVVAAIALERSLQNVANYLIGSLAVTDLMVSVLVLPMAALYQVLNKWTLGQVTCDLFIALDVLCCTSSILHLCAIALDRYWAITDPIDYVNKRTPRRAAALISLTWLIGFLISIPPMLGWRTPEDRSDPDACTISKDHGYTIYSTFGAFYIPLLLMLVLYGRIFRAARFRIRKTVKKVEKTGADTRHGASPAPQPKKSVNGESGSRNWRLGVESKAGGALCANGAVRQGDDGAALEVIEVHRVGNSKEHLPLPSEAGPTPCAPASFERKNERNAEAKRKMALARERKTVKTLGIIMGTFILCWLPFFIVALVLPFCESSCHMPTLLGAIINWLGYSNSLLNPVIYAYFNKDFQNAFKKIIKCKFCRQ
The experiment in a line: Determination of Ki at 5-HT1A receptor (radioligand binding, [3H]-8-Hydroxy DPAT). The conditions noted are these: HEK293-EBNA recombinant cells; [3H]-8-Hydroxy DPAT 0.8 nM; read-out: Ki h5-HT1A. The procedure:
as §1
• Receptor source: Recombinant mammalian cells (HEK293-EBNA) • Radioligand: [^3H]-8-Hydroxy DPAT (200 Ci/mmol) • Final ligand concentration: 0.8 nM • Non-specific determinant: 0.1 mM U92016A • Reference compound: U92016A • Positive control: U92016A Incubation Conditions:
Reactions were carried out in buffer with pH 7.4 containing 50 mM Tris-HCl, 0.5 mM EDTA, 10 mM MgSO4, 0.1% Ascorbic acid for 2 h at r.t. The reaction was terminated by rapid vacuum filtration onto the glass fiber filters. Radioactivity trapped onto the filters was determined and compared to the control values in order to ascertain any interactions of the test compound(s) with cloned human 5-HT1A receptor binding site.

The nature of data set [4]: Rodent brain penetration study. The format is in vivo. The conditions noted are these: rat, brain/plasma, po, fed male Wistar rats, 3 mg/kg p.o., mean ± S.D, n = 3, read-out: Rat Brain Penetration (Cbrain/Cplasma) at 3 mg/kg, p.o. @ 1 h. The procedure: Male Wistar rats (260±40 g) were used as experimental animals. Three animals were housed in each cage. Animals were given water and food ad libitum throughout the experiment and maintained on a 12 h light/dark cycle.
Brain penetration was determined in discrete manner in rats. One day prior to dosing, male Wistar rats were acclimatized and randomly grouped according to their body weight. At each time point (0.50, 1 and 2 h), n=3 animals were used.
The test compounds were suitably preformulated and administered orally at (free base equivalent) 3 mg/kg. Blood samples were removed via cardiac puncture under isoflurane anesthesia. The animals were sacrificed to collect brain tissue. Plasma was separated and brain samples were homogenized. Plasma and brain homogenates were stored frozen at −20° C. until analysis. The concentrations of the test compounds in plasma and brain were determined using LC-MS/MS method.
The test compounds were quantified in plasma and brain homogenate by qualified LC-MS/MS method using suitable extraction technique in the calibration range of 1-500 ng/mL. Study samples were analyzed using calibration samples in the batch and quality control samples spread across the batch. Extent of brain-plasma ratio (Cbrain/Cplasma) was calculated.

The nature of data set [5]: Rodent pharmacokinetic study. It is filed as in vivo, Male Wistar rats. The conditions noted are these: rat, plasma, mean ± S.D, n = 3; for bioavailability: oral 3 mg/kg vs intravenous 1 mg/kg, read-out: F (Bioavailability). On the procedure: Male Wistar rats (260±50 g) were used as experimental animals. Animals were housed individually in polypropylene cage. Two days prior to study, male Wistar rats were anesthetized with isoflurane for surgical placement of jugular vein catheter. Rats were randomly divided for oral (3 mg/kg) and intravenous (1 mg/kg) dosing (n=3/group) and fasted overnight before oral dosing (p.o.). However, food and water were provided ad libitum to the rats allocated for intravenous dosing.
At pre-determined time points, blood samples were collected through jugular vein and replenished with an equivalent volume of normal saline. Collected blood was transferred into a labeled eppendorf tube containing 10 μL of heparin as an anticoagulant. Typically blood samples were collected at 0.08, 0.25, 0.5, 1, 2, 4, 6, 8, and 24 h post dose. Blood samples were centrifuged at 4000 rpm for 10 min. Plasma was separated and stored frozen at −80° C. until analysis. The concentrations of the test compounds were quantified in plasma by qualified LC-MS/MS method using suitable extraction technique. The test compounds were quantified in the calibration range around 1-1000 ng/mL in plasma. Study samples were analyzed using calibration samples in the batch and quality control samples spread across the batch.
Pharmacokinetic parameters Cmax, AUCt, t1/2. Clearance and Bioavailability (F) were calculated using standard non-compartmental model by using Phoenix WinNonlin 6.0.4 version software package.

The target of data set [6] is cloned human SERT receptor (Homo sapiens, UniProt P31645). The data set can be described thus: Determination of Ki at SERT receptor (SPA binding, [3H]-Citalopram). The conditions noted are these: HEK293 recombinant cells, [3H]-Citalopram 2 nM, read-out: Ki hSERT. On the procedure: as §1
• Receptor source: Recombinant mammalian cells (HEK293) • Radioligand: [^3H]-Citalopram (80.8 Ci/mmol) • Final ligand concentration: 2 nM • Non-specific determinant: 0.1 mM Venlafaxine • Reference compound: Venlafaxine • Positive control: Venlafaxine Incubation Conditions:
Reactions were carried out in buffer with pH 7.4 containing 50 mM Tris-HCl, 150 mM NaCl, 5 mM KCl and scintillation proximity assay (SPA) beads (0.1 mg/well) for 3 h at r.t. Radioactivity proximal to SPA beads was determined by scintillation proximity assay and compared to the control values in order to ascertain any interactions of the test compound(s) with cloned human SERT receptor binding site.
Reference: Journal of Pharmacology and Experimental Therapeutics, 1987, 242 (1), 364-371.

Setting [7] is: intravenous (bolus) 1 mg/kg, male Wistar rats.
Setting [8] is: oral (gavage) 3 mg/kg, fasted male Wistar rats.

T2 sequence (P14416 1-414 isoform P14416-2): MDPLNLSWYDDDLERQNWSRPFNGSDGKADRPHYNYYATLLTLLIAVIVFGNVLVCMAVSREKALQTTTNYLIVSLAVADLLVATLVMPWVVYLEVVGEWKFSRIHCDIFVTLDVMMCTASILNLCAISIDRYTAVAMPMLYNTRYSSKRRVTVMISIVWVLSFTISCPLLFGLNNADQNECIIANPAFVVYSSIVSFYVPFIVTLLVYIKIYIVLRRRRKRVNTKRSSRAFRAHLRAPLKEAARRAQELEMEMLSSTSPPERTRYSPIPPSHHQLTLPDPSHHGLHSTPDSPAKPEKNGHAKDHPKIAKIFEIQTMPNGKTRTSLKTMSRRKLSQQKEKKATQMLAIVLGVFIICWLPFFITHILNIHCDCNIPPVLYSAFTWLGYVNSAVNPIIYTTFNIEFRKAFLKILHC
Chain of cloned human SERT receptor (P31645 whole entry): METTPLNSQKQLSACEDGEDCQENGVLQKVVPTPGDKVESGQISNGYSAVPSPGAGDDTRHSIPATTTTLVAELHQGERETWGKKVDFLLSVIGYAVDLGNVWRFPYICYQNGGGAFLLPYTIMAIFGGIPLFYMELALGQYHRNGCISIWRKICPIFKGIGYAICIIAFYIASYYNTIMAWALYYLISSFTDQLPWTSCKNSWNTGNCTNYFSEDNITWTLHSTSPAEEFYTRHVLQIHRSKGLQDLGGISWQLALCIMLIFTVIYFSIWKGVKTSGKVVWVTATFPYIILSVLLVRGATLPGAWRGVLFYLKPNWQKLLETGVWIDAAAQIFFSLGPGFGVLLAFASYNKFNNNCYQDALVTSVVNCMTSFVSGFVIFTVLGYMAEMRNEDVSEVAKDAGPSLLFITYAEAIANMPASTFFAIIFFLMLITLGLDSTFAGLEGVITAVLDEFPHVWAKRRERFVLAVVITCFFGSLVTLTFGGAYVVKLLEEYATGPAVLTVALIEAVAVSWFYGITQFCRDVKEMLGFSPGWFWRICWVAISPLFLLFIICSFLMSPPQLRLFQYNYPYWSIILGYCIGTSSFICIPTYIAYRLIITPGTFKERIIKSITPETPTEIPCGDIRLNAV
T1 sequence (P28223 whole entry): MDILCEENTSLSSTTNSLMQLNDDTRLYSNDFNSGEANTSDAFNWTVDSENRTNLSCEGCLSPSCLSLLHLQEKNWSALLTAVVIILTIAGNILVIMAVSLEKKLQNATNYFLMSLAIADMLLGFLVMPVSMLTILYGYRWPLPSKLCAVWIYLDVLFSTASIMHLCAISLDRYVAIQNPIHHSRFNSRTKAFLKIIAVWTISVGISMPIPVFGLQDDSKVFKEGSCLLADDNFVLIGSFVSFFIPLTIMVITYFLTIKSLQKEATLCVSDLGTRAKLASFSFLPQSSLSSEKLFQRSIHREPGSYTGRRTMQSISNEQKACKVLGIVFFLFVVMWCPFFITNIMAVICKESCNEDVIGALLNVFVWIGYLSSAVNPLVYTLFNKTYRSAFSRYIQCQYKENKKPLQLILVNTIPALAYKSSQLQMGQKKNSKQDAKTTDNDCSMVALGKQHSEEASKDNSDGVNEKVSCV

Usually Ki stands for the equilibrium dissociation constant of an inhibitor or competing ligand from its target. As a reminder, the AUC(0-t) is the area under the concentration-time curve up to a stated or last time point. A high value points to more exposure. As a reminder, the clearance is a measure of how efficiently the substance is removed, as volume per time. Low values mean a low capacity for elimination, high ones a high capacity for elimination. A word on the half-life: it is how long it takes for the measured level to halve. Lower therefore signals rapid decline. The term bioavailability denotes the share of a dose that reaches the circulation, judged against a reference dose that is usually intravenous. By Cmax is commonly meant the maximum level reached in the sampled fluid or tissue. On to `O=C1C[C@@H]2CCCN2C(=O)N1CCCCN1CCC(c2noc3cc(F)ccc23)CC1` [Example 5, 2-{4-[4-(6-Fluoro-benzo[d]isoxazol-3-yl)-piperidin-1-yl]-butyl}-tetrahydro-pyrrolo[1,2-c]pyrimidine-1,3-dione], for which the Ki was 0.7 nM in data set [1], 7.3 nM in data set [2], 14.7 nM in data set [3] and over 10 µM in data set [6] (cells printed in μM). The Kp at 1 h in data set [4] was 1.06 ± 0.46. In addition, the AUC(0-t) was determined as 226 ± 11 ng·h/mL in data set [5] (setting [7]) and 151 ± 61 ng·h/mL in data set [5] (setting [8]). Further, the clearance in data set [5] (setting [7]) was determined as 74 ± 3.4 mL/min/kg. For the same compound, the values for the half-life in data set [5] (setting [7]) and in data set [5] (setting [8]) were 30 ± 6 min and 42 ± 6 min, respectively. In data set [5] (male Wistar rats), the bioavailability was determined as 22 ± 9%. Besides, the highest level in data set [5] (setting [8]) (Cmax) was 152 ± 44 ng/mL.

Take `O=C1C[C@H]2CCCN2C(=O)N1C[C@H]1CCCC[C@H]1CN1CCC(c2noc3cc(F)ccc23)CC1` [Example 29, 2-{2-[4-(6-Fluoro-benzo[d]isoxazol-3-yl)-piperidin-1-ylmethyl]-cyclohexylmethyl}-tetrahydro-pyrrolo[1,2-c]pyrimidine-1,3-dione oxalate]: the Ki is 0.8 nM in data set [1], 0.2 nM in data set [2], 10 nM in data set [3] and over 10 µM in data set [6] (cells printed in μM). Besides, in data set [4], the Kp at 1 h is 2.73 ± 0.23. The AUC(0-t) in data set [5] (setting [7]) worked out at 291 ± 17 ng·h/mL; in data set [5] (setting [8]), 40 ± 15 ng·h/mL. In addition, the clearance in data set [5] (setting [7]) stood at 57 ± 3 mL/min/kg. Further, the half-life in data set [5] (setting [7]) was 60 ± 6 min; in data set [5] (setting [8]) it was 54 ± 6 min. The bioavailability in data set [5] (male Wistar rats) amounted to 4.6 ± 2%. Further, in data set [5] (setting [8]), the Cmax came out at 37 ± 14 ng/mL.

As for `COC(=O)N1CCN2C(=O)N(CCCCN3CCC(c4noc5cc(F)ccc45)CC3)C(=O)C[C@@H]2C1` [Example 35, 7-{4-[4-(6-Fluoro-benzo[d]isoxazol-3-yl)-piperidin-1-yl]-butyl}-6,8-dioxo-octahydro-pyrazino[1,2-c]pyrimidine-2-carboxylic acid methyl ester], the Ki stood at 4.8 nM in data set [1], 4.7 nM in data set [2], 45.7 nM in data set [3] and 0.975 µM in data set [6].

For the compound `COC(=O)N1CCN2C(=O)N(CCCCN3CCC(c4noc5cc(F)ccc45)CC3)C(=O)C[C@@H]2C1` [Example 36, 7-{4-[4-(6-Fluoro-benzo[d]isoxazol-3-yl)-piperidin-1-yl]-butyl}-6,8-dioxo-octahydro-pyrazino[1,2-c]pyrimidine-2-carboxylic acid methyl ester fumarate], the Ki in data set [1] was 2.2 nM; in data set [2], 3.3 nM; in data set [3], 130 nM; in data set [6] it was 1.48 µM.

Take `CC(=O)N1CCN2C(=O)N(CCCCN3CCN(c4nsc5ccccc45)CC3)C(=O)C[C@@H]2C1` [Example 37, 2-Acetyl-7-[4-(4-benzo[d]isothiazol-3-yl-piperazin-1-yl)-butyl]-hexahydro-pyrazino[1,2-c]pyrimidine-6,8-dione]: the Ki in data set [1] stood at 1.5 nM; in data set [2] it was 8.2 nM; in data set [3], 0.3 nM; in data set [6], 1.1 µM.

Consider `CC(C)N1CCN2C(=O)N(CCCCN3CCN(c4nsc5ccccc45)CC3)C(=O)C[C@H]2C1` [Example 40, 7-[4-(4-Benzo[d]isothiazol-3-yl-piperazin-1-yl)-butyl]-2-isopropyl-hexahydro-pyrazino[1,2-c]pyrimidine-6,8-dione fumarate], for which the inhibitory constant (Ki) in data set [1] worked out at 1.6 nM; in data set [2], 5 nM; in data set [3], 0.5 nM; in data set [6] it was 1.25 µM.

As to `O=C1C[C@@H]2CCCN2C(=O)N1CCCCN1CCC(c2noc3ccccc23)CC1` [Example 42, 2-{4-[4-(Benzo[d]isoxazol-3-yl)-piperidin-1-yl]-butyl}-tetrahydro-pyrrolo[1,2-c]pyrimidine-1,3-dione, oxalate], the Ki is 11.6 nM in data set [1], 37.3 nM in data set [2], 8.7 nM in data set [3] and over 10 µM in data set [6] (cells printed in μM).

Regarding `O=C1C[C@@H]2CCCN2C(=O)N1CCCN1CCC(c2noc3ccccc23)CC1` [Example 44, 2-[3-(4-Benzo[d]isoxazol-3-yl-piperidin-1-yl)-propyl]-tetrahydro-pyrrolo[1,2-c]pyrimidine-1,3-dione, oxalate], the Ki was 59.9 nM in data set [1], 119 nM in data set [2], 531 nM in data set [3] and over 10 µM in data set [6] (cells printed in μM).
